Results reported in patent publication US20060069132A1, “Azolecarboxamide herbicides” (priority 2004, published 2006).
Where two headings read alike, the source gives them in different places.

Tests used:
morningglory = assay: Test B pre-/postemergence herbicide test; type: in vivo, Ipomoea coccinea; conditions: Ipomoea, 336 h; for pest or weed control at 125 g/ha: 125 g ai/ha; for pest or weed control at 500 g/ha: 500 g ai/ha
Summary of the method: (§1)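 Herbicidal effect was judged by eye on a 0–100 scale after plants stood 13 to 15 days in the greenhouse following pre- or postemergence treatment with surfactant-containing formulations.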

barnyardgrass = assay: Test B flooded paddy test; type: in vivo, Echinochloa crus-galli; conditions: Echinochloa crus-galli, 336 h, 1000 g ai/ha, visual rating, scale 0 to 100 (0 no effect, 100 complete control), 13 to 15 days, read-out: Barnyardgrass plant response rating
Summary of the method: (§2)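 Treated at 2-leaf (paddy) or 1–4-leaf, 2–18 cm (postemergence); greenhouse 13–15 d; visual score vs control, 0 none to 100 complete control; dash = not tested.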

lambsquarters = assay: Test B pre-/postemergence herbicide test; type: in vivo, Chenopodium album; conditions: Chenopodium album, 336 h; for pest or weed control at 125 g/ha: 125 g ai/ha; for pest or weed control at 500 g/ha: 500 g ai/ha
Summary of the method: (§3)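 Test chemicals in a non-phytotoxic solvent mixture with surfactant were applied preemergence to seeded species and postemergence to plants 2-18 cm tall (1- to 4-leaf stage); rice and barnyardgrass were also tested in a flooded paddy at the 2-leaf stage. Visual rating versus controls after 13-15 days in greenhouse, scale 0 (no effect) to 100 (complete control).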

corn = assay: Test B pre-/postemergence herbicide test; type: in vivo, Zea mays; conditions: Zea mays
Summary of the method: as §3

pigweed = assay: Test B pre-/postemergence herbicide test; type: in vivo, Amaranthus retroflexus; conditions: Amaranthus retroflexus, 336 h; for pest or weed control at 125 g/ha: 125 g ai/ha; for pest or weed control at 500 g/ha: 500 g ai/ha
Summary of the method: as §3

giant foxtail = assay: Test B pre-/postemergence herbicide test; type: in vivo, Setaria faberi; conditions: Setaria faberi, 336 h; for pest or weed control at 125 g/ha: 125 g ai/ha; for pest or weed control at 500 g/ha: 500 g ai/ha
Summary of the method: as §3

blackgrass = assay: Test B postemergence herbicide test; type: in vivo, Alopecurus myosuroides; conditions: Alopecurus myosuroides, post-emergence, 336 h, postemergence, visual rating, scale 0 (no effect) to 100 (complete control), read-out: Blackgrass plant response rating
Summary of the method: as §2

rice = assay: Test B flooded paddy test; type: in vivo, Oryza sativa; conditions: Oryza sativa, 336 h, 1000 g ai/ha, visual rating, scale 0 to 100 (0 no effect, 100 complete control), 13 to 15 days, read-out: Rice plant response rating
Summary of the method: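 Paddy species grown to the 2-leaf stage under flooding; blackgrass sprayed postemergence at 2–18 cm (1- to 4-leaf stage). Plants kept in a greenhouse for 13 to 15 days, then visually rated against controls on 0 (no effect) to 100 (complete control).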

large crabgrass = assay: Test B pre-/postemergence herbicide test; type: in vivo, Digitaria sanguinalis; conditions: Digitaria sanguinalis; for pest or weed control at 125 g/ha: 125 g ai/ha; for pest or weed control at 500 g/ha: 500 g ai/ha
Summary of the method: as §3

Surinam grass = assay: Test B pre-/postemergence herbicide test; type: in vivo, Urochloa decumbens; conditions: Urochloa decumbens; for pest or weed control at 125 g/ha: 125 g ai/ha; for pest or weed control at 500 g/ha: 500 g ai/ha
Summary of the method: as §3

cocklebur = assay: Test B pre-/postemergence herbicide test; type: in vivo, Xanthium strumarium; conditions: Xanthium strumarium; for pest or weed control at 125 g/ha: 125 g ai/ha; for pest or weed control at 500 g/ha: 500 g ai/ha
Summary of the method: as §1

wheat = assay: Test B postemergence herbicide test; type: in vivo, Triticum aestivum; conditions: Triticum aestivum, post-emergence, 336 h, postemergence, 500 g ai/ha; visual rating, scale 0 (no effect) to 100 (complete control); read-out: Wheat plant response rating
Summary of the method: as §2

wild oat = assay: Test B postemergence herbicide test; type: in vivo, Avena fatua; conditions: Avena fatua, post-emergence, 336 h, postemergence, visual rating, scale 0 (no effect) to 100 (complete control), read-out: Oat, Wild plant response rating
Summary of the method: as §2

velvetleaf = assay: Test B pre-/postemergence herbicide test; type: in vivo, Abutilon theophrasti; conditions: Abutilon theophrasti, 336 h; for pest or weed control at 125 g/ha: 125 g ai/ha; for pest or weed control at 500 g/ha: 500 g ai/ha
Summary of the method: as §3

[1] = system: small flower umbrella sedge; assay: Test B flooded paddy test; type: in vivo, Cyperus difformis; conditions: Cyperus difformis, 336 h, 1000 g ai/ha, visual rating, scale 0 to 100 (0 no effect, 100 complete control), 13 to 15 days, read-out: Sedge, Umbrella plant response rating
Summary of the method: as §2

[2] = post-emergence, postemergence, visual rating, scale 0 (no effect) to 100 (complete control), read-out: Morningglory plant response rating
[3] = post-emergence, postemergence, visual rating, scale 0 (no effect) to 100 (complete control), read-out: Lambsquarters plant response rating
[4] = post-emergence, postemergence, visual rating, scale 0 (no effect) to 100 (complete control), read-out: Pigweed plant response rating
[5] = post-emergence, postemergence, visual rating, scale 0 (no effect) to 100 (complete control), read-out: Foxtail, Giant plant response rating
[6] = post-emergence, postemergence, visual rating, scale 0 (no effect) to 100 (complete control), read-out: Crabgrass, Large plant response rating
[7] = post-emergence, postemergence, visual rating, scale 0 (no effect) to 100 (complete control), read-out: Surinam Grass plant response rating
[8] = post-emergence, postemergence, visual rating, scale 0 (no effect) to 100 (complete control), read-out: Cocklebur plant response rating
[9] = post-emergence, postemergence, visual rating, scale 0 (no effect) to 100 (complete control), read-out: Velvetleaf plant response rating

Structure (SMILES): CCn1nc(C(C)(C)C)cc1C(=O)Nc1cccc(C(=O)OC)n1 [Compound 143, methyl 6-[[[3-(1,1-dimethylethyl)-1-ethyl-1H-pyrazol-5-yl]carbonyl]amino]-2-pyridinecarboxylate]
- pest or weed control at 125 g/ha (morningglory; [2]): 0%
- pest or weed control at 500 g/ha (morningglory; [2]): 0%
- pest or weed control at 500 g/ha (morningglory; pre-emergence, visual rating 0-100, 0 no effect, 100 complete control, read-out: Plant response rating, Morningglory): 0%
- pest or weed control at 125 g/ha (morningglory; pre-emergence, preemergence, 0 to 100 scale, 0 is no effect, 100 is complete control, read-out: Plant response rating, Morningglory): 0%
- pest or weed control at 1000 g/ha (barnyardgrass): 0%
- pest or weed control at 125 g/ha (lambsquarters; [3]): 0%
- pest or weed control at 500 g/ha (lambsquarters; [3]): 20%
- pest or weed control at 500 g/ha (lambsquarters; pre-emergence, visual rating 0-100, 0 no effect, 100 complete control, read-out: Plant response rating, Lambsquarters): 0%
- pest or weed control at 125 g/ha (lambsquarters; pre-emergence, preemergence, 0 to 100 scale, 0 is no effect, 100 is complete control, read-out: Plant response rating, Lambsquarters): 0%
- plant injury at 125 g/ha (corn; post-emergence, postemergence, 125 g ai/ha, visual rating, scale 0 (no effect) to 100 (complete control), read-out: Corn plant response rating): 0%
- plant injury at 500 g/ha (corn; post-emergence, postemergence, 500 g ai/ha, visual rating, scale 0 (no effect) to 100 (complete control), read-out: Corn plant response rating): 10%
- Corn plant response rating (crop injury, 0 = no effect, 100 = complete kill) at 500 g/ha (corn; pre-emergence, 500 g ai/ha, visual rating 0-100, 0 no effect, 100 complete control): 0%
- Corn plant response rating (crop injury, 0 = no effect, 100 = complete kill) at 125 g/ha (corn; pre-emergence, preemergence, 125 g ai/ha, 0 to 100 scale, 0 is no effect, 100 is complete control): 0%
- pest or weed control at 125 g/ha (pigweed; [4]): 0%
- pest or weed control at 500 g/ha (pigweed; [4]): 20%
- pest or weed control at 500 g/ha (pigweed; pre-emergence, visual rating 0-100, 0 no effect, 100 complete control, read-out: Plant response rating, Pigweed): 0%
- pest or weed control at 125 g/ha (pigweed; pre-emergence, preemergence, 0 to 100 scale, 0 is no effect, 100 is complete control, read-out: Plant response rating, Pigweed): 0%
- pest or weed control at 125 g/ha (giant foxtail; [5]): 0%
- pest or weed control at 500 g/ha (giant foxtail; [5]): 0%
- pest or weed control at 500 g/ha (giant foxtail; pre-emergence, visual rating 0-100, 0 no effect, 100 complete control, read-out: Plant response rating, Foxtail, Giant): 0%
- pest or weed control at 125 g/ha (giant foxtail; pre-emergence, preemergence, 0 to 100 scale, 0 is no effect, 100 is complete control, read-out: Plant response rating, Foxtail, Giant): 0%
- pest or weed control at 125 g/ha (blackgrass; 125 g ai/ha): 0%
- pest or weed control at 500 g/ha (blackgrass; 500 g ai/ha): 0%
- plant injury at 1000 g/ha (rice): 0%
- pest or weed control at 125 g/ha (large crabgrass; [6]): 0%
- pest or weed control at 500 g/ha (large crabgrass; [6]): 0%
- pest or weed control at 500 g/ha (large crabgrass; pre-emergence, visual rating 0-100, 0 no effect, 100 complete control, read-out: Plant response rating, Crabgrass, Large): 0%
- pest or weed control at 125 g/ha (large crabgrass; pre-emergence, preemergence, 0 to 100 scale, 0 is no effect, 100 is complete control, read-out: Plant response rating, Crabgrass, Large): 0%
- pest or weed control at 125 g/ha (Surinam grass; [7]): 10%
- pest or weed control at 500 g/ha (Surinam grass; [7]): 10%
- pest or weed control at 500 g/ha (Surinam grass; pre-emergence, visual rating 0-100, 0 no effect, 100 complete control, read-out: Plant response rating, Surinam Grass): 0%
- pest or weed control at 125 g/ha (Surinam grass; pre-emergence, preemergence, 0 to 100 scale, 0 is no effect, 100 is complete control, read-out: Plant response rating, Surinam Grass): 0%
- pest or weed control at 125 g/ha (cocklebur; [8]): 0%
- pest or weed control at 500 g/ha (cocklebur; [8]): 0%
- pest or weed control at 500 g/ha (cocklebur; pre-emergence, visual rating 0-100, 0 no effect, 100 complete control, read-out: Plant response rating, Cocklebur): 0%
- pest or weed control at 125 g/ha (cocklebur; pre-emergence, preemergence, 0 to 100 scale, 0 is no effect, 100 is complete control, read-out: Plant response rating, Cocklebur): 0%
- plant injury at 500 g/ha (wheat): 0%
- pest or weed control at 125 g/ha (wild oat; 125 g ai/ha): 0%
- pest or weed control at 500 g/ha (wild oat; 500 g ai/ha): 20%
- pest or weed control at 125 g/ha (velvetleaf; [9]): 0%
- pest or weed control at 500 g/ha (velvetleaf; [9]): 20%
- pest or weed control at 500 g/ha (velvetleaf; pre-emergence, visual rating 0-100, 0 no effect, 100 complete control, read-out: Plant response rating, Velvetleaf): 0%
- pest or weed control at 125 g/ha (velvetleaf; pre-emergence, preemergence, 0 to 100 scale, 0 is no effect, 100 is complete control, read-out: Plant response rating, Velvetleaf): 0%
- pest or weed control at 1000 g/ha [1]: 0%
